What was measured:
L929 fibroblasts = test: TNF and MEKK1COOH synergy, percentage of apoptotic cells (Lac Switch clones); format: cell-based, murine; details: control L929 cells (4.1 LAC1), presence and absence of IPTG
Description: Approximately 20% of control L929 cells became apoptotic upon TNF exposure either in the presence and absence of IPTG. In L929 cells expressing the MEKK1COOH domain, exposure to TNF and IPTG increased the percentage of apoptotic cells to 40%, approximately a 2-fold increase.

L929 cells = test: TNFα-mediated apoptosis of L929 cells (neutral red assay, propidium iodide staining); format: cell-based, murine
Description: Cell lines and culture. L929 cells (ATCC CCL1 were maintained in Dulbecco's modified Eagle's medium with 5% newborn claf serum and 5% bovine calf serum (BCS) supplemented with 100 ug/ml streptomycin and 100U/ml penicillin. The cells were grown in 10 cm dishes at 37° C. in 7.5% CO2. Cells were made quiescent where indicated by incubation in Dulbecco's modified Eagle's medium and 0.1% bovine serum albumin for 24 h. Recombinant murine TNFα and recombinant humanbFGF (147aa) were from R&D Systems, Minneapolis, Minn. Cells were pretreated where indicated with the MEK-1 inhibitor PD#098059 (Parke-Davis Pharmaceutical Corp. Ann Arbor, Mich.) for 1 h at 37° C. Cells were stimulated by incubation with the indicated cytokine or growth factor for various times at 37° C. […] Stimulation was stopped by rinsing the plates twice with ice cold phosphate buffered saline (PBS) and lysing the cells in the appropriate lysis buffer. Cells were scraped from the plates and nuclei were pelleted for 10 min at 14,000 RPM in a microcentrifuge.
Neutral Red Assay Uptake of the dye neutral red was used as one measure of cell viability following cytokine or growth factor treatment (Finter, N. B. (1969) J. Gen Virol. 5:419-427). 1.5×10^4-2.5×10^5 L929 cells/well were plated in 12 well tissue culture dishes in 1.25 ml of media. Cells were treated for 15-20 hr with various concentrations of TNFα and/or bFGF. 2.5 μl of 1% neutral red was added to the wells and incubated for 2 hr at 37° C. PBS. The neutral red was extracted with 1.0 ml of 50% ethanol, 50 mM Na-citrate pH 4.2 and absorbency was measured at […].
Propidium iodide staining Cells were plated on glass chamber slides (Nunc, Naperville, Ill.) at a concentration of 0.2-0.6×10^5 cells/ml. Ras expression was induced with 5 mM IPTG in Dulbecco's modified Eagle's medium with 0.1% BCS for 8-12 hr. Cells were exposed to TNFα (5 ng/ml) and/or bFGF (500 pg/ml) in Dulbecco's modified Eagle's medium with 0.1% BCS for 16 hr. The parental LACI expressing cell line (see below) was used as a control. Cells were washed twice in PBS, fixed in acetone:methanol (1:1) −20° C. for 5 min, air dried, washed twice in PBS, stained with 1 μg/ml propidium iodide (PI) in PBS for 20 min, washed in PBS, washed in H2O and mounted in 25% glycerol/PBS. PI fluorescence was observed using a Nikon inverted microscope equipped with epifluorescence and a […] filter. Images were analyzed using IP lab.

JNK = JNK assay (solid state kinase assay with GST-Jun), L929 cells; format: cell-based, murine
Description: JNK assay. JNK activity was measured using a solid state kinase assay in which glutathione S-transferase-c-Jun(1-79) (GST-JUN) cound to glutathione-Sepharose 4B beads was used to affinity pruify JNK and then JNK activity was measured in an in vitro kinase assay using the sepharose bound GST-Jun as a substrate (Hibi, M., et al. (1993) Genes & Development 7:2135-2148). Stimulated or unstimulated cells were lysed in 0.5% Nonidet P-40, 20 mM HEPES pH 7.2, 100 mM NaCl, 2 mM dithiothreitol, lmM EDTA, 1.0 mM phenylmethylsulfonylfluoride, 1 μg/ml aprotinin and the nuclei pelleted. Lysates were normalized for protein content. […] Binding to GST-Jun efficiently isolates the two major forms of JNK (p45and p55) and under the conditions used JNK isolation was linear for 10-250 μg of cell lysate. The lysates were rotated at 4° C. for 1-3 h. Beads were washed twice in lysis buffer and then twice in PAN (10 mM PIPES, pH 7.0, 100 mM NaCl, 21 μg/ml aprotinin). Kinase reactions were carried out at 30° C. for 15 min in 20 mM Hepes pH 7.2, 20 mM β-glycerophosphate, 10 mMp-nitrophenyl phosphate, 10 mM MgCl2, 1 mM dithiothreitol, 50 μm sodium vanadate, 10 μCi γ^32P-ATP 4300 Ci/mmole. The kinase reaction was linear from 0-30 min.

p42/p44 MAPK = test: MAPK assay (EGFR662-681 peptide), L929 cells; format: cell-based, murine
Description: MAPK Assay MAPK activity was measured exactly as described previously (Gardner, A. M., et al. (1994) Meth. Enzymol. 238:258-270) with the exception that MonoQ FPLC fractionation was replaced by step elution from a DEAE-Sephacel column using 0.5 M NaCl in loading buffer. The eluate was assayed in triplicate using the epidermal growth factor receptor 662-681 peptide (EGFR662-681) as a selective substrate for MAPK activity (Heasley, L. E., et al. (1994) American Journal of Physiology (Renal Fluid Electrolyte Physiol. 36) 267:F366-F373).

B-Raf = test: Raf activation assay (kinase-inactive MEK-1 phosphorylation), L929 cells; format: cell-based, murine
Description: (§1) RafActivation Assay Cells were serum starved and challenged in the presence or absence of the appropriate cytokine or growth factors, as described above. Cells were lysed by scraping in ice cold RIPA buffer (50 mM Tris-HCl, pH 7.2, 150 mM NaCl, 0.1% SDS, 0.5% sodium deoxycholate, 1.0% Triton X-100, 10 mM sodium pyrophosphate, 25 mM β-glycerophosphate, 2 mM sodium vanadate, 2.1 µg/ml aprotinin) and the nuclei were pelletted. The supernatants were normalized for protein content and precleared with protein A Sepharose prior to immunoprecipitation with rabbit antiserum to the C terminus of C-Raf, rabbit anti-serum to A-Raf or rabbit antiserum to B-Raf (Santa Cruz Biotech., Santa Cruz, Calif.) and protein A Sepharose for 2-3 hr at 4° C. The beads were washed twice with ice cold RIPA and twice with PAN. A third of the immunoprecipitate was diluted with SDS sample buffer and used for immunoblot analysis. […] Wild-type recombinant MEK-1 was autophosphorylated in parallel as a marker. Reactions were terminated by the addition of 12.5 μl 5× SDS sample buffer, boiled, and subjected to SDS-PAGE and autoradiography.

C-Raf = test: as above; format: cell-based, murine
Description: as §1

REF52 cells = test: MEKK-induced apoptosis, microinjected REF52 cells; format: cell-based
Description: (§2) Cells were prepared for the apoptosis studies as follows. Swiss 3T3 cells and REF52 cells were transfected with an expression plasmid encoding β-Galactoctosidase (β-Gal) detection of injected cells. One set of β-Gal transfected cells were then microinjected with an expression vector encoding MEKK1 370-738 protein. Another set of β-Gal transfected cells were then microinjected with an expression vector encoding truncated BXB-Raf protein.
(§3) A first group of transfected Swiss 3T3 cells and REF52 cells were treated with 50 μM beauvericin for 6 hours at 37° C. Beauvericin is a compound known to induce apoptosis in mammalian cells. A second group of cells were treated with a control buffer lacking beauvericin. The treated cells were then fixed in parafornaldehyde and permeabilized with saponin using protocols standard in the art. The permeabilized cells were then labelled by incubating the cells with a fluorescein-labelled anti-tubulin antibody (1:500; obtained from GIBCO, Gaithersburg, Md.) to detect cytoplasmic shrinkage or 10 μM propidium iodide (obtained from Sigma, St. Louis, Mo.) to stain DNA to detect nuclear condensation. The labelled cells were then viewed by differential fluorescent imaging using a Nikon Diaphot fluorescent microscope. […]

Swiss 3T3 cells = test: MEKK-induced apoptosis, microinjected Swiss 3T3 cells; format: cell-based
Description: as §2, §3

HEK293 cells = test: MEKK1 staining and TdT-mediated dUTP incorporation (DNA fragmentation) in transfected cells; format: cell-based, Human; details: after 48 hr
Description: Human embryonal kidney 293 cells (HEK293) stably expressing the EBNA-1 protein from Epstein-Barr virus (Invitrogen) were grown in Dulbecco's modified Eagle's medium (DMEM) supplemented with 100 U/ml penicillin/streptomycin and containing 10% bovine calf serum (BCS). The cells were transfected using lipofectamine (Gibco).
Cells were grown on glass coverslips and transfected using lipofectamine. Two days after transfection, the medium was removed and the cells were fixed in 2% paraformaldehyde, 3% sucrose in phosphate buffered saline (PBS) for 10 min at room temperature. Following three washes with PBS, the cells were permeabilized for 10 min with 2% Triton-X100 in PBS. After three PBS washes, the cells were blocked with filtered cultured medium for 15 min. The coverslips were then incubated 1 hour in TdT reaction mix (200 mM potassium cacodylate, 25 mM Tris.HCl, pH 6.6, 250 μg/ml BSA, 5 mM CoCl2, 0.25 U/μl TdT [Boehringer], 10 μM biotin-dUTP [Boehringer]) at 37° C. in a humidifed atmosphere. […] Images were taken using a Leica DMRXA microscope and analyzed with the SlideBook v2.0 software (Intelligent Imaging Innovations, Denver). […]

p38 kinase = p38 kinase activation, transfected HEK293 cells; format: cell-based, Human; details: transfection in HEK293 cells

TNFα
percentage of apoptotic cells (L929 fibroblasts): Approximately 20%
time required to induce a similar level of L929 cell death (L929 cells; 1 ng/ml): 24 to 48 h
L929 cells being apoptotic (L929 cells; 10 ng/ml, 15 hr): greater than 40%
concentration giving maximal JNK activation (JNK): 1 ng/mL
time of peak JNK activity (JNK): 10 to 15 min
JNK activation (JNK; 0.1 ng/ml): greater than four-fold
concentration required to stimulate p42/p44 MAPK 2-3 fold (p42/p44 MAPK): Greater than 10 ng/ml
time to maximal stimulation of p42/p44 MAPK activity (p42/p44 MAPK): 5 to 10 min
MAPK activity stimulated above basal (p42/p44 MAPK; 1 ng/ml): 20%
effect on bFGF stimulation of MAPK activity (p42/p44 MAPK; L929 cells): little or no effect on bFGF stimulation of MAPK activity
MAPK activity (p42/p44 MAPK; L929 cells, TNFα 1 ng/ml where stated): only modest stimulatory effects
B-Raf activation (B-Raf): does not significantly activate
C-Raf activation (C-Raf): does not significantly activate

MEKK1 protein: MEKK1 370-738 protein expressed from a microinjected expression vector
apoptotic morphology of expressing cells (REF52 cells): underwent cytoplasmic shrinkage and nuclear condensation leading to apoptotic death
apoptotic morphology of expressing cells (Swiss 3T3 cells): underwent cytoplasmic shrinkage and nuclear condensation leading to apoptotic death

MEKK1: full length 196 kDa mouse MEKK1, HA-tagged, expressed by transfection
MEKK1-expressing cells apoptotic (HEK293 cells): about 30%
p38 kinase activation (p38 kinase): did not activate the p38 kinase
